The values below come from the NIST ThermoML archive (doi:10.1016/j.jct.2016.01.012).

Numbers after ± are expanded uncertainties.

By refractive index is commonly meant a measure of how strongly the sample bends light. The term viscosity denotes the internal friction of a fluid under shear.

Data set [1] is described as follows: refractive index (Na D-line) (dimensionless); xn = mol fraction of the nth substance listed. Particulars: 298.15 K, 100 kPa, Liquid, Standard Abbe refractometry.
Data set [2] is described as follows: refractive index (Na D-line) (dimensionless). The conditions noted are these: 298.15 K; 100 kPa; Liquid; Standard Abbe refractometry.
For data set [3] the following is noted: 100 kPa, Liquid; for viscosity: Falling or rolling sphere viscometry.
The nature of data set [4]: xn = mol fraction of the nth substance listed. Particulars: 100 kPa, Liquid; for electrical conductivity: Direct current cell with electrodes; for viscosity: Falling or rolling sphere viscometry, x2 = 0.

Take `CCO` [ethanol] + CN(C)C(=[NH2+])N(C)C.c1c[n-]cn1: the refractive index in data set [1] (x2 = 0) was 1.3598 ± 0.0005.

`CN(C)C(=[NH2+])N(C)C.c1c[n-]cn1` [1,1,3,3-tetramethylguanidinium imidazol-1-ide] + CCCCO: the refractive index is 1.4074 ± 0.0005 in data set [1] (x1 = 0.0499); 1.4159 ± 0.0005 in data set [1] (x1 = 0.1004); 1.4316 ± 0.0005 in data set [1] (x1 = 0.1999); 1.4443 ± 0.0005 in data set [1] (x1 = 0.2997); 1.4545 ± 0.0005 in data set [1] (x1 = 0.3985); 1.4641 ± 0.0005 in data set [1] (x1 = 0.4997). Further, the refractive index amounted to 1.4748 ± 0.0006 in data set [1] (x1 = 0.6499), 1.4839 ± 0.0006 in data set [1] (x1 = 0.8002), 1.4888 ± 0.0006 in data set [1] (x1 = 0.9004) and 1.4943 ± 0.0006 in data set [1] (x1 = 1).

As to `CCCCO` [butan-1-ol] + CN(C)C(=[NH2+])N(C)C.c1c[n-]cn1, in data set [1] (x2 = 0), the refractive index is listed as 1.3975 ± 0.0005.

With `CO` [methanol], the refractive index in data set [2] was found to be 1.3267 ± 0.0005.

For the compound `CN(C)C(=[NH2+])N(C)C.c1c[n-]cn1` [1,1,3,3-tetramethylguanidinium imidazol-1-ide], in data set [3] (298.15 K, Direct current cell with electrodes), the electrical conductivity worked out at 0.218 ± 0.002 S/m. In addition, in data set [2], the refractive index came out at 1.4943 ± 0.0006.

Take `CCCO` [propan-1-ol]: the refractive index in data set [2] was found to be 1.3836 ± 0.0005.

In the case of `CN(C)C(=[NH2+])N(C)C.c1c[n-]cn1` [1,1,3,3-tetramethylguanidinium imidazol-1-ide] + CCO, the electrical conductivity stood at 0.0131 ± 0.001 S/m in data set [4] (298.15 K, x1 = 0.01); 0.0337 ± 0.001 S/m in data set [4] (298.15 K, x1 = 0.0299); 0.092 ± 0.0013 S/m in data set [4] (298.15 K, x1 = 0.0897); 0.12 ± 0.0014 S/m in data set [4] (298.15 K, x1 = 0.1197); 0.139 ± 0.0015 S/m in data set [4] (298.15 K, x1 = 0.1499); 0.16 ± 0.0017 S/m in data set [4] (298.15 K, x1 = 0.1797). Also, the electrical conductivity in data set [4] (298.15 K, x1 = 0.2001) was 0.166 ± 0.0017 S/m; in data set [4] (298.15 K, x1 = 0.2195) it was 0.173 ± 0.0018 S/m; in data set [4] (298.15 K, x1 = 0.2398), 0.179 ± 0.0018 S/m; in data set [4] (298.15 K, x1 = 0.2602) it was 0.185 ± 0.0019 S/m; in data set [4] (298.15 K, x1 = 0.2996), 0.199 ± 0.002 S/m; in data set [4] (298.15 K, x1 = 0.3995), 0.213 ± 0.002 S/m. Moreover, the electrical conductivity turned out to be 0.221 ± 0.002 S/m in data set [4] (298.15 K, x1 = 0.5); 0.227 ± 0.002 S/m in data set [4] (298.15 K, x1 = 0.6467); 0.229 ± 0.002 S/m in data set [4] (298.15 K, x1 = 0.801); 0.223 ± 0.002 S/m in data set [4] (298.15 K, x1 = 0.8996); 0.218 ± 0.002 S/m in data set [4] (298.15 K, x1 = 1). In addition, the refractive index in data set [1] (x1 = 0.0483) is listed as 1.3799 ± 0.0006; in data set [1] (x1 = 0.0999) it was 1.3983 ± 0.0006; in data set [1] (x1 = 0.2003) it was 1.4242 ± 0.0006; in data set [1] (x1 = 0.3001) it was 1.4405 ± 0.0005; in data set [1] (x1 = 0.3999) it was 1.4547 ± 0.0005; in data set [1] (x1 = 0.5) it was 1.4652 ± 0.0006. Besides, the refractive index was found to be 1.4762 ± 0.0006 in data set [1] (x1 = 0.643), 1.4854 ± 0.0006 in data set [1] (x1 = 0.7966), 1.4903 ± 0.0006 in data set [1] (x1 = 0.8987) and 1.4943 ± 0.0006 in data set [1] (x1 = 1).

Consider `CCCCO` [butan-1-ol], for which, in data set [2], the refractive index is listed as 1.3975 ± 0.0005.

For the compound `CO` [methanol] + CN(C)C(=[NH2+])N(C)C.c1c[n-]cn1, in data set [1] (x2 = 0), the refractive index turned out to be 1.3267 ± 0.0005.

With `O` [water], the viscosity in data set [3] (293.15 K) is given as 0.997 ± 0.041 mPa·s; in data set [3] (298.15 K), 0.886 ± 0.036 mPa·s; in data set [3] (303.15 K), 0.799 ± 0.033 mPa·s; in data set [3] (308.15 K), 0.726 ± 0.03 mPa·s; in data set [3] (313.15 K), 0.665 ± 0.027 mPa·s. Moreover, the refractive index in data set [2] amounted to 1.3331 ± 0.0005.

As for `CCCO` [propan-1-ol] + CN(C)C(=[NH2+])N(C)C.c1c[n-]cn1, the refractive index in data set [1] (x2 = 0) is given as 1.3836 ± 0.0005.

On to `CN(C)C(=[NH2+])N(C)C.c1c[n-]cn1` [1,1,3,3-tetramethylguanidinium imidazol-1-ide] + CO, for which the refractive index came out at 1.3631 ± 0.0008 in data set [1] (x1 = 0.0501); 1.389 ± 0.0006 in data set [1] (x1 = 0.1005); 1.4222 ± 0.0006 in data set [1] (x1 = 0.1957); 1.4423 ± 0.0005 in data set [1] (x1 = 0.2953); 1.4577 ± 0.0005 in data set [1] (x1 = 0.393); 1.4688 ± 0.0005 in data set [1] (x1 = 0.5005). Besides, the refractive index in data set [1] (x1 = 0.6431) is on record as 1.4791 ± 0.0006; in data set [1] (x1 = 0.7815), 1.4865 ± 0.0006; in data set [1] (x1 = 0.8994) it was 1.4915 ± 0.0006; in data set [1] (x1 = 1) it was 1.4943 ± 0.0006.

Take `O` [water] + CN(C)C(=[NH2+])N(C)C.c1c[n-]cn1: the viscosity worked out at 0.997 ± 0.041 mPa·s in data set [4] (293.15 K); 0.886 ± 0.036 mPa·s in data set [4] (298.15 K); 0.799 ± 0.033 mPa·s in data set [4] (303.15 K); 0.726 ± 0.03 mPa·s in data set [4] (308.15 K); 0.665 ± 0.027 mPa·s in data set [4] (313.15 K). In addition, the refractive index in data set [1] (x2 = 0) is listed as 1.3331 ± 0.0005.

Regarding `CN(C)C(=[NH2+])N(C)C.c1c[n-]cn1` [1,1,3,3-tetramethylguanidinium imidazol-1-ide] + CCCO, the refractive index in data set [1] (x1 = 0.0499) is reported as 1.3969 ± 0.0006; in data set [1] (x1 = 0.0999), 1.4086 ± 0.0005; in data set [1] (x1 = 0.2002), 1.428 ± 0.0005; in data set [1] (x1 = 0.2996), 1.4423 ± 0.0005; in data set [1] (x1 = 0.4002), 1.4545 ± 0.0005; in data set [1] (x1 = 0.4988) it was 1.4642 ± 0.0005. Also, the refractive index was found to be 1.4742 ± 0.0006 in data set [1] (x1 = 0.6264), 1.4848 ± 0.0006 in data set [1] (x1 = 0.8001), 1.4895 ± 0.0006 in data set [1] (x1 = 0.9006) and 1.4943 ± 0.0006 in data set [1] (x1 = 1).

Regarding `CCO` [ethanol], the refractive index in data set [2] is 1.3598 ± 0.0005.
